Our source for the IC50 values is patent US20250215029A1 (Recludix Pharma, Inc., priority 2022, published 2025).

For test [1], the target named is T1, Recombinant STAT6 protein (STAT6 (W123-T658)) (Homo sapiens, UniProt P42226).
T1 construct: Recombinant STAT6 protein (STAT6 (W123-T658))
T1 sequence (P42226 123-658): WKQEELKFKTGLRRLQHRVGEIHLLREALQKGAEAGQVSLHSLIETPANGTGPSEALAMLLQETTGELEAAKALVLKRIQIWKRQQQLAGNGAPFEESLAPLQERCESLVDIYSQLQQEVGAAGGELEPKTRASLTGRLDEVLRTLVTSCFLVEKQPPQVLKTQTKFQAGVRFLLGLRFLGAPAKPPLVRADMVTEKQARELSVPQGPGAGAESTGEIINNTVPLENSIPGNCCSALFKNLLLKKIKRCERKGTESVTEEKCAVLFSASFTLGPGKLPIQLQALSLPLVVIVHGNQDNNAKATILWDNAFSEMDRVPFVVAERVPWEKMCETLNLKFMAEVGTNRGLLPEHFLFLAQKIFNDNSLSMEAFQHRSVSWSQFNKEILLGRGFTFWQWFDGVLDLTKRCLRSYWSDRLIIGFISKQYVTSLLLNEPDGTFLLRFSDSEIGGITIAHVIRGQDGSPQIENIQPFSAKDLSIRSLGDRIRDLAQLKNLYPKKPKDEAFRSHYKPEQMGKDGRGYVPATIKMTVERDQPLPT
As to the kind of experiment: STAT6 Fluorescence Polarization (FP) Assay. It counts as binding. The note with it: STAT6 (W123-T658) 250 nM, probe 5-FAM-Ap[…]-NH2 2 nM, 45-minute incubation; read-out: STAT6 (FP assay IC50 class). The procedure, abridged: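 Fluorescence polarization (mP) read-out: 250 nM STAT6 (W123-T658) plus 2 nM 5-FAM phosphotyrosine peptide, 45 min, room temperature, 1% DMSO. IC50 by nonlinear fit of mP against log compound concentration.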
For orientation: In fluorescence polarisation assays a small probe gives low polarisation when free and higher when bound to something large.

The target in test [2] is T2, Recombinant STAT3 protein (STAT3 (G127-I722)) (Homo sapiens, UniProt P40763).
T2 construct: Recombinant STAT3 protein (STAT3 (G127-I722))
As to the kind of experiment: STAT3 Fluorescence Polarization (FP) Assay. The format is binding. The note with it: STAT3 (G127-I722) 25 nM, probe 5-FAM-GpYLPQTV-NH2 2 nM, 45-minute incubation; read-out: STAT3 (FP assay IC50 class). In outline: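 Read-out is fluorescence polarization (mP) after 45 min at room temperature, with IC50 fitted by nonlinear regression against log compound concentration. Mixture: 25 nM STAT3 (G127-I722), 2 nM 5-FAM-GpYLPQTV-NH2 phosphopeptide, 10 mM HEPES pH 7.4 buffer, 1% DMSO.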

T2 sequence (P40763 127-722): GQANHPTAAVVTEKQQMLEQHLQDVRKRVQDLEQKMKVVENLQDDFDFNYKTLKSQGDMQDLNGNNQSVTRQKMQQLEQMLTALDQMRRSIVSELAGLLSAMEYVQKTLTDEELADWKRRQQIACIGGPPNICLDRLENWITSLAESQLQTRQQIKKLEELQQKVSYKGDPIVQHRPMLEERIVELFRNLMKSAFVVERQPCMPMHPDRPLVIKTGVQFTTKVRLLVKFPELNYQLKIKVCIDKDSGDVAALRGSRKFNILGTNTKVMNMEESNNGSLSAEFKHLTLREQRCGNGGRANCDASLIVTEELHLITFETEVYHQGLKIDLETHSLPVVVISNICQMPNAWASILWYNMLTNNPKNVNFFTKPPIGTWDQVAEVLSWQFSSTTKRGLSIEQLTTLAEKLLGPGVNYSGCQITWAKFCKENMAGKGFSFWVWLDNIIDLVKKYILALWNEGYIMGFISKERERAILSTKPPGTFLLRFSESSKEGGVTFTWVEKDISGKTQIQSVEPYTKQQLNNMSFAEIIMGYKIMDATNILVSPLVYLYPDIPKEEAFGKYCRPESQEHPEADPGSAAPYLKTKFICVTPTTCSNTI

A word on the IC50: it is the midpoint of a concentration-inhibition curve. Take `CC(C)[C@H]1CC[C@H](NC(=O)c2cc3cc(C(F)P(=O)(O)O)ccc3s2)C(=O)N2[C@H](CC[C@H]2C(=O)N2C[C@@H](C#N)[C@H](c3ccccc3)C2)C1` (single isomer, unassigned) [Compound 238]: the IC50 in test [1] is not above 0.3 µM; in test [2], 1 to 10 µM.

With `CCC[C@@H]1CC[C@H](NC(=O)c2cc3cc(C(F)P(=O)(O)O)ccc3s2)C(=O)N2[C@H](CC[C@H]2C(=O)N2C[C@@H](C#N)[C@H](c3ccccc3)C2)C1` (single isomer, unassigned) [Compound 239], the IC50 was not above 0.3 µM in test [1] and 1 to 10 µM in test [2].

`CCC[C@H]1CC[C@H](NC(=O)c2cc3cc(C(F)P(=O)(O)O)ccc3s2)C(=O)N2[C@H](CC[C@H]2C(=O)N2C[C@@H](C#N)[C@H](c3ccccc3)C2)C1` (single isomer, unassigned) [Compound 240]: the IC50 in test [1] is not above 0.3 µM; in test [2], 1 to 10 µM.

Turning to `O=C(N[C@H]1CCC[C@H]2CC[C@@H](C(=O)N3CC(c4cnccc4F)C3)N2C1=O)c1cc2cc([C@@H](F)P(=O)(O)O)ccc2s1` (single isomer, unassigned) [Compound 599], the half-maximal inhibitory concentration (IC50) in test [1] was 0.3 to 3 µM; in test [2], less than 0.1 µM.

Consider `O=C(N[C@H]1CCC[C@H]2CC[C@@H](C(=O)N3CC(c4cnccc4F)C3)N2C1=O)c1cc2cc([C@H](F)P(=O)(O)O)ccc2s1` (single isomer, unassigned) [Compound 600], for which the results for the IC50 in test [1] and in test [2] were 0.3 to 3 µM and less than 0.1 µM, respectively.

As to `CN(C)c1ccncc1C1CN(C(=O)[C@@H]2CC[C@@H]3CCC[C@H](NC(=O)c4cc5cc([C@@H](F)P(=O)(O)O)ccc5s4)C(=O)N32)C1` (single isomer, unassigned) [Compound 631], the IC50 in test [1] was 3 to 30 µM; in test [2], less than 0.1 µM.

Consider `CN(C)c1ccncc1C1CN(C(=O)[C@@H]2CC[C@@H]3CCC[C@H](NC(=O)c4cc5cc([C@H](F)P(=O)(O)O)ccc5s4)C(=O)N32)C1` (single isomer, unassigned) [Compound 634], for which the IC50 in test [1] was 0.3 to 3 µM; in test [2], less than 0.1 µM.

`Cc1ccncc1C1CN(C(=O)[C@@H]2CC[C@@H]3CCC[C@H](NC(=O)c4cc5cc([C@H](F)P(=O)(O)O)ccc5s4)C(=O)N32)C1` (single isomer, unassigned) [Compound 636]: the IC50 is 3 to 30 µM in test [1] and less than 0.1 µM in test [2].

Regarding `CN(C)c1ncncc1C1CN(C(=O)[C@@H]2CC[C@@H]3CCC[C@H](NC(=O)c4cc5cc([C@H](F)P(=O)(O)O)ccc5s4)C(=O)N32)C1` (single isomer, unassigned) [Compound 665], the 50% inhibitory concentration (IC50) in test [1] was 3 to 30 µM; in test [2], less than 0.1 µM.

With `CN(C)c1ncncc1C1CN(C(=O)[C@@H]2CC[C@@H]3CCC[C@H](NC(=O)c4cc5cc([C@@H](F)P(=O)(O)O)ccc5s4)C(=O)N32)C1` (single isomer, unassigned) [Compound 667], the IC50 in test [1] was 3 to 30 µM; in test [2], less than 0.1 µM.

As to `COC[C@@H]1CCN1c1ncncc1C1CN(C(=O)[C@@H]2CC[C@@H]3CCC[C@H](NC(=O)c4cc5cc([C@@H](F)P(=O)(O)O)ccc5s4)C(=O)N32)C1` (single isomer, unassigned) [Compound 669], the IC50 in test [1] is 3 to 30 µM; in test [2], less than 0.1 µM.

As to `Cc1nnc([C@H]2[C@H](c3ccccc3)CN2C(=O)[C@@H]2CC[C@@H]3CCC[C@H](NC(=O)c4cc5cc(C(F)P(=O)(O)O)ccc5s4)C(=O)N32)o1` (single isomer, unassigned) [Compound 674], the IC50 was in the range of 3 to 30 µM in test [1] and 0.1 to 1 µM in test [2].

`C[C@H]1C[C@H]2CC[C@@H](C(=O)N3CC(c4cncnc4N4CCC4)C3)N2C(=O)[C@@H](NC(=O)c2cc3cc([C@H](F)P(=O)(O)O)ccc3s2)C1` (single isomer, unassigned) [Compound 676]: the figures for the IC50 in test [1] and in test [2] were 3 to 30 µM and less than 0.1 µM, respectively.

For the molecule `C[C@H]1C[C@H]2CC[C@@H](C(=O)N3CC(c4cncnc4N4CCC4)C3)N2C(=O)[C@@H](NC(=O)c2cc3cc([C@@H](F)P(=O)(O)O)ccc3s2)C1` (single isomer, unassigned) [Compound 677], the IC50 in test [1] is 3 to 30 µM; in test [2] it was less than 0.1 µM.

`CN(C)c1c(F)cncc1C1CN(C(=O)[C@@H]2CC[C@@H]3CCC[C@H](NC(=O)c4cc5cc([C@H](F)P(=O)(O)O)ccc5s4)C(=O)N32)C1` (single isomer, unassigned) [Compound 685]: the values for the IC50 in test [1] and in test [2] were 3 to 30 µM and less than 0.1 µM, respectively.

In the case of `O=C(N[C@H]1CCC[C@H]2CC[C@@H](C(=O)N3CC(c4cncnc4N4CCC4)C3)N2C1=O)c1cc2cc([C@H](F)P(=O)(O)O)ccc2s1` (single isomer, unassigned) [Compound 689], the IC50 in test [1] was 0.3 to 3 µM; in test [2] it was less than 0.1 µM.

In the case of `O=C(N[C@H]1CCC[C@H]2CC[C@@H](C(=O)N3CC(c4cncnc4N4CCC4)C3)N2C1=O)c1cc2cc([C@@H](F)P(=O)(O)O)ccc2s1` (single isomer, unassigned) [Compound 690], the IC50 in test [1] was 3 to 30 µM; in test [2] it was less than 0.1 µM.

For the molecule `CN(C)C(=O)c1ccncc1C1CN(C(=O)[C@@H]2CC[C@@H]3CCC[C@H](NC(=O)c4cc5cc([C@@H](F)P(=O)(O)O)ccc5s4)C(=O)N32)C1` (single isomer, unassigned) [Compound 696], the values for the half-inhibitory concentration (IC50) in test [1] and in test [2] were 3 to 30 µM and 1 to 10 µM, respectively.

On to `COc1c(C2CN(C(=O)[C@@H]3CC[C@@H]4CCC[C@H](NC(=O)c5cc6cc([C@@H](F)P(=O)(O)O)ccc6s5)C(=O)N43)C2)ccnc1Cl` (single isomer, unassigned) [Compound 698], for which the values for the IC50 in test [1] and in test [2] were 3 to 30 µM and 0.1 to 1 µM, respectively.

On to `COc1nccc(C2CN(C(=O)[C@@H]3CC[C@@H]4CCC[C@H](NC(=O)c5cc6cc([C@@H](F)P(=O)(O)O)ccc6s5)C(=O)N43)C2)c1F` (single isomer, unassigned) [Compound 700], for which the results for the IC50 in test [1] and in test [2] were 3 to 30 µM and 0.1 to 1 µM, respectively.

With `CN(C)c1cc(C2CN(C(=O)[C@@H]3CC[C@@H]4CCC[C@H](NC(=O)c5cc6cc([C@@H](F)P(=O)(O)O)ccc6s5)C(=O)N43)C2)ccn1` (single isomer, unassigned) [Compound 701], the IC50 in test [1] fell in the range of 3 to 30 µM; in test [2], 0.1 to 1 µM.

Regarding `COc1cc(C2CN(C(=O)[C@@H]3CC[C@@H]4CCC[C@H](NC(=O)c5cc6cc([C@@H](F)P(=O)(O)O)ccc6s5)C(=O)N43)C2)ccn1` (single isomer, unassigned) [Compound 702], the IC50 in test [1] lay in the range of 3 to 30 µM; in test [2] it was 0.1 to 1 µM.

Take `CNc1c(F)cncc1C1CN(C(=O)[C@@H]2CC[C@@H]3CCC[C@H](NC(=O)c4cc5cc([C@H](F)P(=O)(O)O)ccc5s4)C(=O)N32)C1` (single isomer, unassigned) [Compound 703]: the results for the half-maximal inhibitory concentration (IC50) in test [1] and in test [2] were 3 to 30 µM and less than 0.1 µM, respectively.

Take `Cn1ccc(C2CN(C(=O)[C@@H]3CC[C@@H]4CCC[C@H](NC(=O)c5cc6cc([C@@H](F)P(=O)(O)O)ccc6s5)C(=O)N43)C2)cc1=O` (single isomer, unassigned) [Compound 708]: the results for the IC50 in test [1] and in test [2] were 3 to 30 µM and 0.1 to 1 µM, respectively.

On to `CCOc1cc(C2CN(C(=O)[C@@H]3CC[C@@H]4CCC[C@H](NC(=O)c5cc6cc([C@@H](F)P(=O)(O)O)ccc6s5)C(=O)N43)C2)ccn1` (single isomer, unassigned) [Compound 709], for which the IC50 fell in the range of 3 to 30 µM in test [1] and 0.1 to 1 µM in test [2].

Take `CN(C)c1nccc(C2CN(C(=O)[C@@H]3CC[C@@H]4CCC[C@H](NC(=O)c5cc6cc([C@@H](F)P(=O)(O)O)ccc6s5)C(=O)N43)C2)n1` (single isomer, unassigned) [Compound 710]: the IC50 in test [1] fell in the range of 3 to 30 µM; in test [2] it was 0.1 to 1 µM.

Regarding `O=C(N[C@H]1CCC[C@H]2CC[C@@H](C(=O)N3CC(c4ccnc(N5CCOCC5)c4)C3)N2C1=O)c1cc2cc([C@@H](F)P(=O)(O)O)ccc2s1` (single isomer, unassigned) [Compound 712], the IC50 in test [1] fell in the range of 3 to 30 µM; in test [2] it was 1 to 10 µM.

With `CN(C)c1cncc(C2CN(C(=O)[C@@H]3CC[C@@H]4CCC[C@H](NC(=O)c5cc6cc([C@H](F)P(=O)(O)O)ccc6s5)C(=O)N43)C2)c1Cl` (single isomer, unassigned) [Compound 713], the IC50 in test [1] fell in the range of 3 to 30 µM; in test [2], 0.1 to 1 µM.

For `C[C@@H]1[C@@H](c2cccnc2)CN1C(=O)[C@@H]1CC[C@@H]2CCC[C@H](NC(=O)c3cc4cc(C(F)P(=O)(O)O)ccc4s3)C(=O)N21` (single isomer, unassigned) [Compound 738], the results for the half-inhibitory concentration (IC50) in test [1] and in test [2] were 0.3 to 3 µM and less than 0.1 µM, respectively.
